Assay results published in ChEMBL document CHEMBL5223130, “Targeting SARS-CoV-2 Main Protease for Treatment of COVID-19: Covalent Inhibitors Structure-Activity Relationship Insights and Evolution Perspectives” (J Med Chem, 2022).
Square brackets hold non-standard residues; d marks the D form. Peptide text beside a SMILES is read from it. Nle = CCCC[C@H](N)C(=O)O

Legend:
[1] = molecular target: T1, Replicase polyprotein 1ab (Severe acute respiratory syndrome coronavirus 2, UniProt P0DTD1); assay: Inhibition of SARS-CoV-2 Main protease
[2] = tested on: SARS-CoV-2; assay type: functional, organism-based; conditions: Severe acute respiratory syndrome coronavirus 2, Caco-2
[3] = Selectivity index, ratio of EC50 for antiviral activity against SARS-CoV-2 to […]; assay type: toxicity
[4] = molecular target: T1, Replicase polyprotein 1ab; assay: Inhibition of C-terminal His-tagged SARS-CoV-2 BetaCoV/Wuhan/WIV04/2019 Main protease expressed in Escherichia coli using Dabcyl-KTSAVLQ/SGFRKME(Edans) as substrate by FRET assay
[5] = tested on: SARS-CoV-2; assay type: functional, organism-based, Vero E6; conditions: Severe acute respiratory syndrome coronavirus 2, WK-521, Vero C1008, 72 h
[6] = tested on: SARS-CoV-2; assay: Antiviral activity against SARS-CoV-2 USA-WA1/2020 infected in African green monkey Vero 76 cells assessed as reduction in virus induced cytopathic effect measured after 3 days by secondary viral yield reduction assay; assay type: functional, organism-based; conditions: Severe acute respiratory syndrome coronavirus 2, USA-WA1/2020, Vero 76, 72 h
[7] = molecular target: T1, Replicase polyprotein 1ab; assay: Inhibition of SARS-CoV-2 Main protease using Dabcyl-KTSAVLQSGFRKME-Edans as substrate preincubated for 30 mins followed by substrate addition and measured after 4 hrs by fluorescence based assay
[8] = tested on: SARS-CoV-2; assay type: functional, organism-based, Vero E6; conditions: Severe acute respiratory syndrome coronavirus 2, nCoV-2019BetaCoV/Wuhan/WIV04/2019, Vero C1008
[9] = molecular target: T1, Replicase polyprotein 1ab; assay: Inhibition of recombinant SARS-CoV-2 Main protease expressed in Escherichia coli BL21 (DE3) cells using Mca-AVLQSGFR-K(Dnp)K as substrate preincubated for 15 mins followed by substrate addition by FRET assay
[10] = molecular target: T1, Replicase polyprotein 1ab; assay: Binding affinity to SARS-CoV-2 Main protease assessed as inhibition constant
[11] = tested on: SARS-CoV-2; assay type: functional, organism-based, Vero E6; conditions: Severe acute respiratory syndrome coronavirus 2, USA-WA1/2020, Vero C1008, 72 h
[12] = molecular target: T1, Replicase polyprotein 1ab; assay: Binding affinity to C-terminal His-tagged SARS-CoV-2 BetaCoV/Wuhan/WIV04/2019 Main protease expressed in Escherichia coli assessed as inhibition constant
[13] = molecular target: T1, Replicase polyprotein 1ab; assay: Inhibition of SARS-CoV-2 Main protease by FRET assay
[14] = tested on: SARS-CoV-2; assay: Antiviral activity against SARS-CoV-2 2019-nCoV/USA_WA1/2020 infected in human Huh-7 cells expressing ACE2 measured 24 hrs post infection; assay type: functional, organism-based; conditions: Severe acute respiratory syndrome coronavirus 2, 2019-nCoV/USA_WA1/2020, Huh-7, 24 h
[15] = tested on: SARS-CoV-2; assay type: functional, organism-based; conditions: Severe acute respiratory syndrome coronavirus 2, A549, 96 h
[16] = tested on: SARS-CoV-2; assay type: functional, organism-based; conditions: Severe acute respiratory syndrome coronavirus 2, Caco-2, 72 h
[17] = molecular target: Procathepsin L (Homo sapiens, UniProt P07711); assay: Inhibition of human Cathepsin L using Z-Phe-Arg-AMC as fluorogenic substrate incubated for 30 mins followed by substrate addition by fluorescence based analysis
[18] = tested on: SARS-CoV-2; assay type: functional, organism-based, Vero E6; conditions: Severe acute respiratory syndrome coronavirus 2, 2019-nCoV/USA_WA1/2020, Vero C1008, 72 h
[19] = tested on: SARS-CoV-2; assay: microbe, parasite or virus in culture; conditions: Severe acute respiratory syndrome coronavirus 2

Chain of Procathepsin L (P07711 whole entry): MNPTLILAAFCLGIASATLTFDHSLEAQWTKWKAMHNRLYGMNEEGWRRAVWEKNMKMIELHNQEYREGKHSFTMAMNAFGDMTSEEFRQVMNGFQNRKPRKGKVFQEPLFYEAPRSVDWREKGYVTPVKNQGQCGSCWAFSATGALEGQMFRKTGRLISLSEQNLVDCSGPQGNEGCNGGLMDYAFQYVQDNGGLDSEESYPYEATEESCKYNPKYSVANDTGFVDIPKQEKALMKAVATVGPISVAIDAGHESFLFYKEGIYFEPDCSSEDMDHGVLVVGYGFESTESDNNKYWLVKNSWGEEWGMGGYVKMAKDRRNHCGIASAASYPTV

Q: With `C[C@H](NC[C@@H](c1cccnc1)N(C(=O)C(Cl)Cl)c1ccc(-c2ccccc2)cc1)c1ccccc1` as the molecule, how does the IC50 [1] read?
A: Its IC50 is 430 nM.

Q: And the EC50 [2]?
A: Its EC50 is 2050 nM.

Q: And the Ratio [3]?
A: Its Ratio is 4.76.

Q: For `CCCC[C@@H](C=O)NC(=O)[C@H](CC(C)C)NC(=O)[C@H](CC(C)C)NC(C)=O` (Ac-Leu-Leu-[Nle]-aldehyde), which IC50 [4] is on record?
A: The IC50 was 970 nM.

Q: With `Cc1cccc(C(=O)Oc2c(C)cccc2C(=O)Oc2cncc(Cl)c2)c1O` as the molecule, how does the EC50 [5] read?
A: Its EC50 is 24000 nM.

Q: Which EC50 [6] does the source give for `CCC[C@H](NC(=O)[C@H](CC(C)C)NC(=O)OCc1ccccc1)C(=O)C(=O)NCc1ccccn1` here?
A: Its EC50 is 780 nM.

Q: For `COc1ccc(-c2sc3n(c(NC(C)(C)C)c4[n+]3[C@H]3CC(=O)C=C[C@H]3OC4)c2-c2ccc(OC)cc2)cc1`, which IC50 [7] is on record?
A: Its IC50 is 20700 nM.

Q: Which results are given for `COc1cccc(Cn2[se]c3ccccc3c2=O)c1`?
A: EC50 [8]: 4500 nM; IC50 [9]: 363 nM

Q: With `O=C1C=CC(=O)c2c(O)ccc(O)c21` [NAPHTHAZALIN] as the molecule, how does the IC50 [1] read?
A: Its IC50 is 490 nM.

Q: For `C=CCn1ccc2c(C(=O)Oc3cncc(Cl)c3)cccc21`, which Ratio [3] is on record?
A: The Ratio was 205.47.

Q: For `O=c1c2ccccc2[se]n1Cc1ccc(Cl)cc1`, which EC50 [8] is on record?
A: The EC50 was 1780 nM.

Q: What about the IC50 [9] of the same molecule?
A: Its IC50 is 824 nM.

Q: With `O=C(Oc1cncc(Cl)c1)c1cccc2c1CCN2` as the molecule, how does the Ki [10] read?
A: The Ki was 2150 nM.

Q: And the Ratio [3]?
A: The Ratio was 46.87.

Q: For `CC(C)C[C@H](NC(=O)OCc1ccccc1)C(=O)N[C@@H](CC(C)C)C(=O)N[C@@H](C[C@@H]1CCNC1=O)C(=O)C(=O)NC1CC1`, which EC50 [11] is on record?
A: Its EC50 is 11100 nM.

Q: What about the Ki [12] of the same molecule?
A: The Ki was 13 nM.

Q: Which Ratio [3] does the source give for `O=C[C@H](C[C@@H]1CCNC1=O)NC(=O)[C@@H]1[C@H]2CCC[C@H]2CN1C(=O)OCc1ccccc1` here?
A: The Ratio was 50.2.

Q: With `C[C@H](NC[C@@H](c1cccnc1)N(C(=O)C(Br)(Br)Br)c1ccc(-c2ccccc2)cc1)c1ccccc1` as the molecule, how does the IC50 [1] read?
A: The IC50 was 80 nM.

Q: What about the EC50 [2] of the same molecule?
A: The EC50 was 2150 nM.

Q: What about the Ratio [3] of the same molecule?
A: Its Ratio is 26.87.

Q: For `CC(C)CCn1sc2ccc(Br)cc2c1=O`, which IC50 [13] is on record?
A: Its IC50 is 320 nM.

Q: With `CC(C)C[C@H](NC(=O)OCc1cccc(C(F)(F)F)c1)C(=O)N[C@@H](C[C@@H]1CCNC1=O)C(O)S(=O)(=O)O` (some centres undefined) as the molecule, how does the EC50 [14] read?
A: Its EC50 is 6 nM.

Q: Which results are given for `CC(C)C[C@H](NC(=O)[C@@H](NC(=O)OCc1ccccc1)[C@H](C)OC(C)(C)C)C(=O)N[C@H](C=O)C[C@@H]1CCNC1=O`?
A: EC50 [15]: 310 nM; EC50 [16]: 2500 nM; IC50 [17]: 1.2 nM

Q: Which Ki [10] does the source give for `C=CC(=O)N(c1ccc(C(C)(C)C)cc1)[C@H](C(=O)NCCc1cccc(F)c1)c1cccnc1` here?
A: Its Ki is 38400 nM.

Q: Which results are given for `COc1cncc(Cn2[se]c3ccccc3c2=O)c1`?
A: EC50 [8]: 3170 nM; IC50 [9]: 467 nM

Q: Which EC50 [11] does the source give for `CC(C)C[C@H](NC(=O)OCc1ccccc1)C(=O)N[C@@H](C[C@@H]1CCNC1=O)C(=O)C(=O)NC1CC1` here?
A: Its EC50 is 4610 nM.

Q: What about the Ratio [3] of the same molecule?
A: The Ratio was 102.44.

Q: What about the Ki [12] of the same molecule?
A: Its Ki is 36 nM.

Q: Which EC50 [8] does the source give for `O=C(c1cccc(Cn2[se]c3ccccc3c2=O)c1)N1CCOCC1` here?
A: The EC50 was 3740 nM.

Q: What about the IC50 [9] of the same molecule?
A: Its IC50 is 345 nM.

Q: Which IC50 [1] does the source give for `O=C(CCl)N1N=C(c2cc(Cl)ccc2F)C(c2ccccc2)C1c1ccc2nccnc2c1` (centres undefined) here?
A: Its IC50 is 14 nM.

Q: Which EC50 [18] does the source give for `CCOC(=O)/C=C/[C@H](C[C@@H]1CCNC1=O)NC(=O)[C@H](CC(C)C)NC(=O)[C@@H](NC(=O)OCc1ccccc1)[C@@H](C)OC(C)(C)C` here?
A: Its EC50 is 2880 nM.

Q: For `CSCC[C@@H](C=O)NC(=O)[C@H](CC(C)C)NC(=O)[C@H](CC(C)C)NC(C)=O` (Ac-Leu-Leu-Met-aldehyde), which EC50 [6] is on record?
A: Its EC50 is 3700 nM.

Q: With `CC(C)(C)NC(=O)N[C@H](C(=O)N1C[C@H]2[C@@H]([C@H]1C(=O)NC(CC1CCC1)C(=O)C(N)=O)C2(C)C)C(C)(C)C` (some centres undefined) [BOCEPREVIR] as the molecule, how does the EC50 [19] read?
A: Its EC50 is 1900 nM.

Q: For `O=C(N[C@@H](Cc1ccccc1)C(=O)N[C@@H](C[C@@H]1CCNC1=O)C(O)S(=O)(=O)[O-])OCc1ccccc1.[Na+]` (some centres undefined), which Ratio [3] is on record?
A: The Ratio was 45.78.
